Here are results for twelve compounds from patent publication US20240199618A1, “NOVEL N-ACYL-[3-SUBSTITUTED]-[8-SUBSTITUTED]-5,6-DIHYDRO-[1,2,4]TRIAZOLO[4,3-a]PYRAZINES AS SELECTIVE NK-3 RECEPTOR ANTAGONISTS, PHARMACEUTICAL COMPOSITION, METHODS FOR USE IN NK-3 RECEPTOR-MEDIATED DISORDERS” (Ogeda SA, priority 2013, published 2024).

Each structure is given as a SMILES string. Like-named read-outs stand apart in the source and are kept apart here.

The target in one data set is human NK-2 receptor (Homo sapiens (Human), UniProt P21452). The experiment in a line: Selectivity assay: [125I]-Neurokinin A binding, human NK-2 receptor. The conditions noted are these: 0.1 nM [125I]-Neurokinin A, CHO membranes; read-out: hNK-2 (Ki). As for the experimental part:
The affinity of compounds of the invention for the NK-2 receptor was evaluated in CHO recombinant cells which express the human NK-2 receptor. Membrane suspensions were prepared from these cells. […] Binding assays were performed in a 25 mM HEPES/1 mM CaCl2)/5 mM MgCl2/0.5% BSA/10 μg/ml saponin, at pH 7.4. […] The radioactivity retained on the filters was measured by using the TopCount-NXT reader (Packard).

Data set [1] concerns the target T1, human NK-3 receptor (Homo sapiens (Human), UniProt P29371). The experiment in a line: 3H-SB222200 binding competition assay with human NK-3 receptor. As for the experimental part: The affinity of compounds of the invention for the human NK-3 receptor was determined by measuring the ability of compounds of the invention to competitively and reversibly displace a well-characterized NK-3 radioligand in a concentration-dependent manner.
^3H-SB222200 Binding Competition Assay with Human NK-3 Receptor
Membranes were prepared from Chinese hamster ovary recombinant cells stably expressing the human NK-3 receptor. The membranes were incubated with 5 nM ^3H-SB222200 (ARC) in a HEPES 25 mM/NaCl 0.1M/CaCl2 1 mM/MgCl2 5 mM/BSA 0.5%/Saponin 10 μg/ml buffer at pH 7.4 and various concentrations of compounds of the invention. The amount of ^3H-SB222200 bound to the receptor was determined after filtration by the quantification of membrane associated radioactivity using the TopCount-NXT reader (Packard).

The target in data set [2] is T1, human NK-3 receptor. The experiment in a line: Aequorin functional assay with human NK-3 receptor (antagonist testing vs NKA). It counts as cell-based. To be noted: CHO cells, NKA at EC80 (3 nM); read-out: Functional assay: Aequorin assay with human NK-3 receptor hNK-3-AEQ (antagonist IC50). As for the experimental part:
Aequorin Assay with Human NK-3 Receptor
Changes in intracellular calcium levels are a recognized indicator of G protein-coupled receptor activity. The efficacy of compounds of the invention to inhibit NKA-mediated NK-3 receptor activation was assessed by an in vitro Aequorin functional assay. Chinese Hamster Ovary recombinant cells expressing the human NK-3 receptor and a construct that encodes the photoprotein apoaequorin were used for this assay. In the presence of the cofactor coelenterazine, apoaequorin emits a measurable luminescence that is proportional to the amount of intracellular (cytoplasmic) free calcium.
The antagonist activity of compounds of the invention is measured following pre-incubation (3 minutes) of the compound (at various concentrations) with the cells, followed by addition of the reference agonist (NKA) at a final concentration equivalent to the EC80 (3 nM) and recording of emitted light (FDSS 6000 Hamamatsu) over the subsequent 90-second period. The intensity of the emitted light is integrated using the reader software. Compound antagonist activity is measured based on the concentration-dependent inhibition of the luminescence response to the addition of Neurokinin A.

The next data set addresses human NK-1 receptor (Homo sapiens (Human), UniProt P25103). In words: Selectivity assay: [3H] substance P binding, human NK-1 receptor. To be noted: 2 nM [3H] substance P, CHO membranes; read-out: hNK-1 (Ki). As for the experimental part: Selectivity of the compounds of the invention was determined over the other human NK receptors, namely NK-1 and NK-2 receptors.
The affinity of compounds of the invention for the NK-1 receptor was evaluated in CHO recombinant cells which express the human NK-1 receptor. Membrane suspensions were prepared from these cells. The following radioligand: [^3H] substance P (PerkinElmer Cat #NET111520) was used in this assay. Binding assays were performed in a 50 mM Tris/5 mM MnCl2/150 mM NaCl/0.1% BSA at pH 7.4. Binding assays consisted of 25 μl of membrane suspension (approximately 5 μg of protein/well in a 96 well plate), 50 μl of compound or reference ligand (Substance P) at increasing concentrations (diluted in assay buffer) and 2 nM [^3H] substance P. The plate was incubated 60 min at 25° C. in a water bath and then filtered over GF/C filters (Perkin Elmer, 6005174, presoaked in 0.5% PEI for 2 h at room temperature) with a Filtration unit (Perkin Elmer). The radioactivity retained on the filters was measured by using the TopCount-NXT reader (Packard).

A further data set concerns plasma protein. In words: Determination of plasma protein binding (equilibrium dialysis, RED). The conditions noted are these: 4 hours at 37° C. The class given is in vitro ADME. From the text:
Determination of plasma protein binding The pharmacokinetic and pharmacodynamic properties of chemicals/drugs are largely a function of the reversible binding of chemicals to plasma or serum proteins. […] Consequently, the extent of the plasma protein binding (PPB) of a compound influences its action as well as its distribution and elimination.
The determination of plasma protein binding (PPB) of a compound is enabled by equilibrium dialysis, an accepted and standard method for reliable estimation of the non-bound drug fraction in plasma. RED (Rapid Equilibrium Dialysis) device insert is made of two side-by-side chambers separated by an O-ring-sealed vertical cylinder of dialysis membrane (MWCO ˜8,000). […] After 4 hours incubation at 37° C. under shaking, an aliquot is removed from each chamber and analyzed by a LC-MS/MS procedure enables the determination of both free and bound drug.
The “free fraction” may be calculated as 100%−% rPPB (i.e. the complementary percentage of that disclosed in Table 4, corresponding to the drug concentration that is unbound and therefore available to engage biological target and elicit pharmacological activity).

The mark [3] stands for this setting: Table 2, 5 nM 3H-SB222200, CHO membranes, read-out: Competitive binding assay with human NK-3 receptor hNK-3 (Ki).
[4] abbreviates: Table 3 (selectivity table), read-out: hNK-3 (Ki).

human NK-1 receptor, sequence (P25103 whole entry): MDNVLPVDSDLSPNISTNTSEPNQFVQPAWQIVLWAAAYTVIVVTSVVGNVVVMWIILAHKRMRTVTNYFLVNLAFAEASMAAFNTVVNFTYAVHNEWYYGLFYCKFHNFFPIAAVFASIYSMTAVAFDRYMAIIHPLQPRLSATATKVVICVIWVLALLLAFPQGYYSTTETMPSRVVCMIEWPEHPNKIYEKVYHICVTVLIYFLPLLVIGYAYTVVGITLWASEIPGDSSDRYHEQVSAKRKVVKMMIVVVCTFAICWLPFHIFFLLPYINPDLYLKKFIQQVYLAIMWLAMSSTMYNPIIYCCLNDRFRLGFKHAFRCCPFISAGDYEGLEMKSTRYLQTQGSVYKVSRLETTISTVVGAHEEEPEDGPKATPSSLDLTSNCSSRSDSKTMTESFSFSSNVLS
T1 sequence (P29371 whole entry): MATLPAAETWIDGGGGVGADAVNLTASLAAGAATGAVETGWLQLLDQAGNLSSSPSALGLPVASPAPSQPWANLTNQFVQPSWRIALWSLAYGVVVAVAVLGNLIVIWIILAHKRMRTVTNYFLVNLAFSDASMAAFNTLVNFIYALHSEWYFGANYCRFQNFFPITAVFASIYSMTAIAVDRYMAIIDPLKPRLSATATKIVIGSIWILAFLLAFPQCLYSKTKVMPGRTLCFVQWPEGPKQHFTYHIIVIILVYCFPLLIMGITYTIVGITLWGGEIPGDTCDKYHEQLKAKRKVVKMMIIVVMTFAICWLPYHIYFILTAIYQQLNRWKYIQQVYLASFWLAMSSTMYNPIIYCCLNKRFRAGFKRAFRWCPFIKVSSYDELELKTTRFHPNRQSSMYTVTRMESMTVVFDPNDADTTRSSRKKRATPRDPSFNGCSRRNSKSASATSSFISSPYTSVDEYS
human NK-2 receptor, sequence (P21452 whole entry): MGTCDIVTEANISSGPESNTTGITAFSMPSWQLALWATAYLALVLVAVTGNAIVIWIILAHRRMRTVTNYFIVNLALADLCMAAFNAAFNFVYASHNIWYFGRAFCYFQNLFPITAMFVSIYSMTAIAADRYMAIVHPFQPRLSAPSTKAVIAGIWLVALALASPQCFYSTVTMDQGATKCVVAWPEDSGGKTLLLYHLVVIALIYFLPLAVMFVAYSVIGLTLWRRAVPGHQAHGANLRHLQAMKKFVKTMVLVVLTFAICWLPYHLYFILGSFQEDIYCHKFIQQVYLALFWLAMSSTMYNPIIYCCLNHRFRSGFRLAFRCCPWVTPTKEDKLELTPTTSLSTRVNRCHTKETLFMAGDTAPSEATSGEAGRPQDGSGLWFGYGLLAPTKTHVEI

For the compound `CCc1nsc(-c2nnc3n2CCN(C(=O)c2ccc(F)cc2)C3C)n1` (racemic) [Compound 39, (3-(3-ethyl-1,2,4-thiadiazol-5-yl)-8-methyl-5,6-dihydro-[1,2,4]triazolo[4,3-a]pyrazin-7(8H)-yl)(4-fluorophenyl)methanone], the Ki was above 30 µM on human NK-2 receptor, 0.028 µM on human NK-3 receptor [1] (setting [3]), 0.028 µM at human NK-3 receptor [1] (setting [4]) and above 30 µM on human NK-1 receptor. Further, the IC50 on human NK-3 receptor [2] was 0.032 µM. Besides, the “Exposure (% rPPB), bound drug fraction to plasma protein” value (“Exposure (% rPPB), bound drug fraction” for short) in the data set on plasma protein is listed as 43%.
As for `Cc1nsc(-c2nnc3n2CCN(C(=O)c2ccccc2C)[C@@H]3C)n1` [Compound 26, (R)-(8-methyl-3-(3-methyl-1,2,4-thiadiazol-5-yl)-5,6-dihydro-[1,2,4]triazolo[4,3-a]pyrazin-7(8H)-yl)(o-tolyl)methanone], the Ki on human NK-2 receptor is above 30 µM; on human NK-3 receptor [1] (setting [3]), 0.088 µM; at human NK-3 receptor [1] (setting [4]) it was 0.088 µM; on human NK-1 receptor, above 30 µM. Besides, the IC50 at human NK-3 receptor [2] is 0.074 µM. Further, in the data set with plasma protein, the “Exposure (% rPPB), bound drug fraction” value worked out at 19%.
`Cc1nsc(-c2nnc3n2CCN(C(=O)c2ccc(F)c(F)c2F)C3C)n1` (racemic) [Compound 33, (8-methyl-3-(3-methyl-1,2,4-thiadiazol-5-yl)-5,6-dihydro-[1,2,4]triazolo[4,3-a]pyrazin-7(8H)-yl)(2,3,4-trifluorophenyl)methanone]: the Ki at human NK-2 receptor is above 30 µM; at human NK-3 receptor [1] (setting [3]) it was 0.089 µM; at human NK-3 receptor [1] (setting [4]), 0.089 µM; on human NK-1 receptor it was above 30 µM. Further, the IC50 at human NK-3 receptor [2] was determined as 0.12 µM. Further, the “Exposure (% rPPB), bound drug fraction” value in the data set on plasma protein was 29%.
As to `CC(F)c1noc(-c2nnc3n2CCN(C(=O)c2ccc(F)cc2)[C@@H]3C)n1` (single isomer, unassigned) [Compound 45-2], the Ki on human NK-2 receptor is above 30 µM; at human NK-3 receptor [1] (setting [3]) it was 0.083 µM; on human NK-3 receptor [1] (setting [4]), 0.083 µM; on human NK-1 receptor it was above 30 µM. For the same compound, the IC50 at human NK-3 receptor [2] is 0.148 µM. In addition, in the data set on plasma protein, the “Exposure (% rPPB), bound drug fraction” value was 33%.
Regarding `Cc1nsc(-c2nnc3n2CCN(C(=O)c2ccc(F)c(F)c2)C3C)n1` (racemic) [Compound 32], the inhibition constant (Ki) at human NK-2 receptor is above 30 µM; at human NK-3 receptor [1] (setting [3]), 0.059 µM; on human NK-3 receptor [1] (setting [4]) it was 0.059 µM; on human NK-1 receptor, above 30 µM. Moreover, on human NK-3 receptor [2], the half-inhibitory concentration (IC50) is 0.044 µM. Besides, in the data set on plasma protein, the “Exposure (% rPPB), bound drug fraction” value came out at 25%.
As for `C[C@@H]1c2nnc(-c3nc(C(F)F)ns3)n2CCN1C(=O)c1ccc(F)cc1` [Compound 42, (R)-(3-(3-(difluoromethyl)-1,2,4-thiadiazol-5-yl)-8-methyl-5,6-dihydro-[1,2,4]triazolo[4,3-a]pyrazin-7(8H)-yl)(4-fluorophenyl)methanone], the Ki on human NK-2 receptor was above 30 µM; at human NK-3 receptor [1] (setting [3]), 0.048 µM; at human NK-3 receptor [1] (setting [4]) it was 0.048 µM; on human NK-1 receptor, above 30 µM. For the same compound, on human NK-3 receptor [2], the IC50 was determined as 0.039 µM. In addition, the “Exposure (% rPPB), bound drug fraction” value with plasma protein was 16%.
For `CCC[C@@H]1c2nnc(-c3nc(C)ns3)n2CCN1C(=O)c1ccc(F)cc1` [Compound 24, (R)-(4-fluorophenyl)(3-(3-methyl-1,2,4-thiadiazol-5-yl)-8-propyl-5,6-dihydro-[1,2,4]triazolo[4,3-a]pyrazin-7(8H)-yl)methanone], the Ki on human NK-2 receptor was above 30 µM; on human NK-3 receptor [1] (setting [3]) it was 0.078 µM; on human NK-3 receptor [1] (setting [4]) it was 0.078 µM; at human NK-1 receptor it was above 30 µM. Moreover, at human NK-3 receptor [2], the IC50 came out at 0.12 µM. Further, the “Exposure (% rPPB), bound drug fraction” value in the data set on plasma protein is listed as 48%.
For `Cc1nsc(-c2nnc3n2CCN(C(=O)c2cc(F)c(F)c(F)c2)C3C)n1` (racemic) [Compound 34, (8-methyl-3-(3-methyl-1,2,4-thiadiazol-5-yl)-5,6-dihydro-[1,2,4]triazolo[4,3-a]pyrazin-7(8H)-yl)(3,4,5-trifluorophenyl)methanone], the Ki on human NK-2 receptor was above 30 µM; on human NK-3 receptor [1] (setting [3]) it was 0.038 µM; at human NK-3 receptor [1] (setting [4]), 0.038 µM; on human NK-1 receptor, above 30 µM. In addition, the IC50 on human NK-3 receptor [2] was 0.062 µM. In the data set with plasma protein, the “Exposure (% rPPB), bound drug fraction” value stood at 24%.
On to `Cc1nsc(-c2nnc3n2CCN(C(=O)c2ccc(F)c(Cl)c2)[C@@H]3C)n1` [Compound 6, (R)-(3-chloro-4-fluorophenyl)(8-methyl-3-(3-methyl-1,2,4-thiadiazol-5-yl)-5,6-dihydro-[1,2,4]triazolo[4,3-a]pyrazin-7(8H)-yl)methanone], for which the Ki at human NK-2 receptor was 25 µM; on human NK-3 receptor [1] (setting [3]), 0.024 µM; at human NK-3 receptor [1] (setting [4]) it was 0.024 µM; at human NK-1 receptor, 22.1 µM. In addition, on human NK-3 receptor [2], the IC50 is 0.03 µM. Moreover, the “Exposure (% rPPB), bound drug fraction” value in the data set on plasma protein came out at 53%.
Regarding `Cc1nsc(-c2nnc3n2CCN(C(=O)c2ccc(F)c(Cl)c2)C3C)n1` (racemic) [Compound 35, (3-chloro-4-fluorophenyl)(8-methyl-3-(3-methyl-1,2,4-thiadiazol-5-yl)-5,6-dihydro-[1,2,4]triazolo[4,3-a]pyrazin-7(8H)-yl)methanone], the Ki on human NK-2 receptor is 30 µM; at human NK-3 receptor [1] (setting [3]), 0.073 µM; on human NK-3 receptor [1] (setting [4]), 0.073 µM; at human NK-1 receptor it was above 30 µM. The IC50 on human NK-3 receptor [2] came out at 0.054 µM. For the same compound, the “Exposure (% rPPB), bound drug fraction” value with plasma protein is recorded as 52%.
As for `Cc1nsc(-c2nnc3n2CCN(C(=O)c2ccc(F)cc2F)[C@@H]3C)n1` [Compound 18, (R)-(2,4-difluorophenyl)(8-methyl-3-(3-methyl-1,2,4-thiadiazol-5-yl)-5,6-dihydro-[1,2,4]triazolo[4,3-a]pyrazin-7(8H)-yl)methanone], the Ki was above 30 µM at human NK-2 receptor, 0.054 µM at human NK-3 receptor [1] (setting [3]), 0.054 µM at human NK-3 receptor [1] (setting [4]) and above 30 µM on human NK-1 receptor. The IC50 on human NK-3 receptor [2] stood at 0.087 µM. Moreover, the “Exposure (% rPPB), bound drug fraction” value in the data set with plasma protein is 23%.
With `CC(F)c1noc(-c2nnc3n2CCN(C(=O)c2ccc(F)cc2)[C@@H]3C)n1` (stereo partly drawn) [Compound 45, ((8R)-3-(3-(1-fluoroethyl)-1,2,4-oxadiazol-5-yl)-8-methyl-5,6-dihydro-[1,2,4]triazolo[4,3-a]pyrazin-7(8H)-yl)(4-fluorophenyl)methanone], the Ki at human NK-2 receptor was above 30 µM; at human NK-3 receptor [1] (setting [3]), 0.101 µM; on human NK-3 receptor [1] (setting [4]), 0.101 µM; at human NK-1 receptor, above 30 µM. Also, the IC50 on human NK-3 receptor [2] turned out to be 0.244 µM. Besides, the “Exposure (% rPPB), bound drug fraction” value in the data set on plasma protein is reported as 31%.

For orientation: Ki means a measure of affinity in units of concentration, obtained from inhibition or displacement. Usually IC50 stands for the midpoint of a concentration-inhibition curve.
